Source: patent US6866995B1, “Method to enable assessment of growth and death of micro-organisms” (priority 1999, dated 2005)
Read-outs that look alike come from different tables or passages of the source.

What was measured:
[1] = test system: E. coli with plasmid pGFP+luc*; assay type: cell-based, E. coli strain MC1061; conditions: 5 min
Description: Environ. Microbiol. 64: 515-519.
The measurements were done with a combined fluoro- and luminometer, Fluoroscan Ascent FL, provided by Labsystems Ltd. (Helsinki, Finland). Cell growth was simultaneously followed with a flow cytometer.
For the measurements, 100 μl of bacterial culture was pipetted into the microtiter plate wells. Fluorescence was measured using 485 nm for excitation and 510 nm for emission. Measuring time was 20 ms. After the fluorescence measurement 100 μl of luciferin in 0.1 M citric acid-sodium citrate buffer (pH 5.0) was dispensed into the wells and the plate was shaken for two minutes (shaking diameter 1 mm, 1 020 rpm), after which luminescence was recorded with a measuring time of 1000 ms.

[2] = test system: E. coli with plasmid pGFP+luc*; conditions: for death: incubation 5 min, 30° C., FIGS. 4 and 5 (plating and live/dead staining)
Description: (§1) One colony from a pure culture plate was inoculated in 5 ml of LB-medium with ampicillin (100 μg/ml) and grown at +37° C. in a shaker, 250 rpm, for about three hours. After that, the number of cells per milliliter was determined with flow cytometry by using fluorescent spherical latex particles as a reference. One million cells were then removed to an erlenmeyer with 50 ml of LB medium and ampicillin. The culture was grown over night in a shaker, 190 rpm, at room temperature to prevent the culture from growing into the stationary phase during the night. In the morning, the culture was transferred to and grown in a shaker, 330 rpm, until the stationary phase was reached or used after growth at +30° C. for about 1 h to study the influence of ethanol or serum complement as described below.
(§2) Ethanol (Aa, Primalco Oy) was diluted into pure water to obtain concentrations of […], 25, 10, 5, 1 and 0% of ethanol when 500 μl of said dilution was added to 500 μl of said culture in an eppendorf tube. The mixture was vortexed and incubated for 5 minutes before measuring fluorescence and luminescence. Live cells were again counted by plating and also by live/dead staining. In the live/dead protocol used the stain cyto 9 stains all cells whereas propidium iodide stains only the dead cells. After staining, cells are passed through a flow cytometer, with which dead and live cells can be differentiated and their proportion determined. (Virta et al. (1998) Appl. Environ. Microbiol. 64: 515-519.)
The influence of serum complement on the said recombinant E. coli strain was studied using an incubation time of 90 min as described for a different recombinant E. coli strain used in Virta et al. (1998) Appl. Environ. Microbiol. 64: 515-519.
Samples for plating were diluted 10^2 to 10^7 fold with 150 mM NaCl and plated onto L agar plates (L broth containing 1.6% agar). Colonies were counted after overnight incubation at 37° C.

[3] = test system: E. coli with plasmid pGFP+luc*; conditions: with increased ethanol concentration, 5 min, FIG. 5
Description: as §1
as §2, with “In the live/dead protocol used the stain cyto 9 stains all cells whereas propidium iodide stains only the dead cells.” left out, “(Virta et al. (1998) Appl. Environ. Microbiol. 64: 515-519.)” left out

CCO [ethanol, Ethanol]
fluorescence ([1]; whatever the ethanol concentration (0-50%), FIG. 2): essentially constant
luminescence ([1]; with increased ethanol concentration, FIG. 3): dropped dramatically
death ([2]; ethanol concentrations above 10%): very pronounced significance
death ([2]; ethanol concentrations below 5%): more or less unsignificant
live cell count according to plate count ([2]; with increased ethanol concentration, 5 min, FIG. 4): dramatically decreasing
percentage of live cells according to the live/dead staining [3]: dramatically decreasing
